Measured values as given in ChEMBL document CHEMBL2390934, “Synthesis and evaluation of phenoxyoxazaphospholidine, phenoxyoxazaphosphinane, and benzodioxaphosphininamine sulfides and related compounds as potential anti-malarial agents” (Bioorg Med Chem Lett, 2013).
Activity calls are given as the source filed them. No cut-off for these calls is given here.

tested on: Plasmodium falciparum; assay: Antimalarial activity against Plasmodium falciparum 3D7 infected in O positive erythrocytes assessed as parasite lactate dehydrogenase activity after 72 hrs; assay type: functional, organism-based; settings: 3D7, 72 h

| Structure (SMILES) | IC50 |
| --- | --- |
| NCCCCNc1ccnc2cc(Cl)ccc12 | 0.64 µM |
| Cc1cc2c(c([N+](=O)[O-])c1)OP(=S)(NC(C)C)OC2 (configuration not stated) | > 128 µM |
| CCOP(=O)(NC(C)C)Oc1ccc2ccccc2c1[N+](=O)[O-] (configuration not stated) | 98 µM |
| FC(F)(F)c1ccc(OP2(=S)NCCO2)cc1 (configuration not stated) | 108 µM |
| CC(C)NP1(=S)OCc2cc([N+](=O)[O-])ccc2O1 (configuration not stated) | 108 µM |
| FC(F)(F)c1ccc(OP2(=S)NCCCO2)cc1 (configuration not stated) | 62 µM |
| FC(F)(F)c1ccc(OP2(=S)OCCS2)cc1 (configuration not stated) | 64 µM |
| CC(C)NP1(=S)OCc2ccccc2O1 (configuration not stated) | 62 µM |
| CCOP(=O)(NC(C)C)Oc1cc(O)ccn1 (configuration not stated) | 128 µM |
| CCOP(=O)(NC(C)C)Oc1ccc(C(F)(F)F)cn1 (configuration not stated) | 25 µM |
| CCOP(=S)(NCCCCNc1ccnc2cc(Cl)ccc12)Oc1ccc(C(F)(F)F)cc1 (configuration not stated) | 0.038 µM |
| Cc1ccc([N+](=O)[O-])c(OP2(=S)NCCCO2)c1 (configuration not stated) | > 128 µM |
| CC(C)CNP1(=S)OCc2ccccc2O1 (configuration not stated) | 58 µM |
| Cc1ccc([N+](=O)[O-])cc1OP1(=S)NCCCO1 (configuration not stated) | 108 µM |
| CCOP(=O)(NC1CCCC1)Oc1ccc(C(F)(F)F)cn1 (configuration not stated) | 23 µM |
| CC1COP(=S)(Oc2ccc(C(F)(F)F)cc2)N1 (racemic) | > 128 µM |

| Structure (SMILES) | IC50 |
| --- | --- |
| CCOP(=O)(NC(C)C)Oc1ccc2ccccc2c1 (configuration not stated) | 87 µM |
| CCOP(=S)(NC1CCCC1)Oc1cccc2cccnc12 (configuration not stated) | 25 µM |
| CCOP(=O)(NC(C)C)Oc1nccc(C)c1[N+](=O)[O-] (configuration not stated) | 128 µM |
| CCOP(=S)(NC(C)C)Oc1ccc(C(F)(F)F)cn1 (configuration not stated) | 29 µM |
| Cc1ccc([N+](=O)[O-])cc1OP1(=S)NCCO1 (configuration not stated) | 24 µM |
| CCOP(=O)(NC(C)C)Oc1cc(C)ccn1 (configuration not stated) | 128 µM |
| Cc1ccc(OP2(=S)NC(C)CO2)c([N+](=O)[O-])c1 (mixture of isomers) | 77 µM |
| Cc1cc([N+](=O)[O-])ccc1OP1(=S)NCCO1 (configuration not stated) | 51 µM |
| Cc1cc([N+](=O)[O-])ccc1OP1(=S)NCCCO1 (configuration not stated) | 128 µM |
| CCOP(=S)(NC1CCCC1)Oc1ccc2ncccc2c1 (configuration not stated) | 19 µM |
| CCOP(=O)(NC(C)C)Oc1cc(C)c([N+](=O)[O-])cn1 (configuration not stated) | 25 µM |
| Cc1ccc(OP2(=S)NCCCO2)c([N+](=O)[O-])c1 (configuration not stated) | > 128 µM |
| CCCNP1(=S)OCc2ccccc2O1 (configuration not stated) | 95 µM |
| Cc1ccc(OP2(=S)NCCO2)c([N+](=O)[O-])c1 (configuration not stated) | > 128 µM |
| CC(C)CNP1(=S)OCc2cc([N+](=O)[O-])ccc2O1 (configuration not stated) | 118 µM |

tested on: Plasmodium falciparum; assay: Antimalarial activity against chloroquine-resistant Plasmodium falciparum K1/Thailand infected in O positive erythrocytes assessed as parasite lactate dehydrogenase activity after 72 hrs; assay type: functional, organism-based; settings: not given

| Structure (SMILES) | Activity |
| --- | --- |
| CCOP(=S)(NCCCCNc1ccnc2cc(Cl)ccc12)Oc1ccc(C(F)(F)F)cc1 (configuration not stated) | Active |
